# Laboratory results published in patent US20120035206A1, “PREPARATION AND APPLICATION OF NOVEL ANTIBACTERIAL AND ANTICANCER COMPOUNDS AND THEIR DERIVATIVES” (priority 2009, published 2012).
# What was measured:
# Format in all cases: cell-based
# [1] = test system: C. neoformans; test: In vitro antibacterial (antifungal) test, two-fold dilution MIC; settings: Cryptococcus neoformans, RPMI 1640, culture 2-7 days
# Description: (§1) In vitro antibacterial experiments of 25 compounds as anti-bacterial and anti-cancer compounds in the patent were tested using 14 kinds of bacteria. Tested bacteria: C. albicans, C. tropicalis, C. neoformans, E. floccosum, M. gypseum, A. niger, S. schenekn, C. parapsilosis, C. glabrata, C. Krusei, Trichoderma, Gibberella, Setrosphaeria turcica, Fusarium Oxysporum Vasinfectum. (Bacteria were from the Dermatology Hospital of Chinese Academy of Medical Sciences, Nanjing, China.)
# (§2) The Preparation of tested Bacteria solution was following: incubated Bacteria were added to 5 ml physiological saline, and then they were mashed and placed with ultrasound. The solution was fully mixed, and insoluble substances were removed. The treated solution was called the original bacterium solution. In the test, the bacteria concentration in the original bacterium solution was adjusted to […].
# (§3) Tested Methods: the tested compounds were dissolved in dimethyl sulfoxide. and the solution was diluted with sterile distilled water. And the distilled solution was added to sterilized RPMI 1640 medium. The concentration of the compounds were adjusted to 256, 128, 64, 32, 16, 8, 4, 2, 1, 0.5, 0.25, 0.125 ug*ml-1. Then the adjusted solutions were inoculated with tested bacteria, and the tested systems were placed in the constant temperature oven to culture for 2-7 days. The concentration at which there was no growing of fungi was taken as the minimum inhibitory concentration (MIC).
# [2] = test system: Setosphaeria turcica; test: as above; settings: Exserohilum turcicum, RPMI 1640, culture 2-7 days
# Description: as §1, §2, §3
# [3] = test system: C. glabrata; test: as above; settings: Nakaseomyces glabratus, RPMI 1640, culture 2-7 days
# Description: as §1, §2, §3
# [4] = test system: gibberella; test: as above; settings: RPMI 1640, culture 2-7 days
# Description: as §1, §2, §3
# [5] = test system: C. Krusei; test: as above; settings: Pichia kudriavzevii, RPMI 1640, culture 2-7 days
# Description: as §1, §2, §3
# [6] = test system: C. parapsilosis; test: as above; settings: Lodderomyces parapsilosis, RPMI 1640, culture 2-7 days
# Description: as §1, §2, §3
# [7] = test system: C. albicans; test: as above; settings: Candida albicans, read-out: MIC C. albicas
# Description: as §1, §2, §3
# [8] = test system: C. tropicalis; test: as above; settings: Candida tropicalis, RPMI 1640, culture 2-7 days
# Description: as §1, §2, §3
# [9] = test system: S. schenekn; test: as above; settings: RPMI 1640, culture 2-7 days
# Description: as §1, §2, §3
# [10] = test system: Terchoderma; test: as above; settings: Trichoderma, RPMI 1640, culture 2-7 days
# Description: as §1, §2, §3
# [11] = test system: Fusarium oxysporum vasinfectum; test: as above; settings: RPMI 1640, culture 2-7 days
# Description: as §1, §2, §3
# [12] = test system: M. gypseum; test: as above; settings: Nannizzia gypsea, RPMI 1640, culture 2-7 days
# Description: as §1, §2, §3
# [13] = test system: SGC7901; test: In vitro anticancer MTT experiment; settings: Homo sapiens, SGC-7901, concentration 5 ug/ml, 48 h or 72 h, read-out: inhibition ratio SGC7901
# Description: (§4) In vitro anticancer experiments of 25 compounds as anti-bacterial and anti-cancer compounds in the patent were tested. In the test, 14 kinds of cancer cells were used as tested cancer cells. And the results obtained by MTT method were shown in table 2 (the inhibition ratio was obtained when the concentration was 5 ug/ml). Tested Cancer Cells: SGC7901, HTB-38HT-29, CRL-2233NU-398, CRL-1469PANC-1, B0192, HTB-131MDA-453, CRL-1435PC-3, FTC133, AS24391, HTB-95637. (Cancer cells were from Chinese Military Academy of Medical Sciences). Cells Culture: Culture solution was composed of RPMI 1640 medium, 10% (VAT) Fetal calf serum and 0.01% L-glutamine. Cultured cells were maintained at 37° C. in an incubator with 5% CO2. The cells at logarithmic growth phase were used in the experiment. MTT Experiment: Single cell suspension was obtained by digesting cells with 0.25% trypsin. The cells at logarithmic growth phase were collected and seeded in a 96-well plate at a concentration of 6000-7000 cells per well. After culturing for 12 h at 37° C. in the incubator with 5% CO2, the cells were again incubated with the tested compounds of various concentrations for 48 h or 72 h. Pure cultures and cells without drug were taken as blank reference and negative reference, and 8 Wells of each group were taken. Twenty microliter of MTT (5 mg/mL) was added to each well, and the mixed solutions were incubation for 4 h. The formazan product was dissolved by dimethyl sulfoxide (DMSO, 150 μL), and the optical density (O.D.) was read at 570 nm. The Inhibition Ratio was calculated by the following formula: Inhibition Ratio=(Anegative control−Asample)/(Anegative control−Ablank control)
# [14] = test system: CRL-1469PANC-1; test: In vitro anticancer MTT experiment; settings: concentration 5 ug/ml, 48 h or 72 h, read-out: inhibition ratio CRL-1469PANC-1
# Description: as §4
# [15] = test system: L428; test: In vitro anticancer MTT experiment; settings: Homo sapiens, L-428, concentration 5 ug/ml, 48 h or 72 h, read-out: inhibition ratio L428
# Description: as §4
# [16] = test system: B01092; test: In vitro anticancer MTT experiment; settings: concentration 5 ug/ml, 48 h or 72 h, read-out: inhibition ratio B01092
# Description: as §4
# [17] = test system: L1210; test: In vitro anticancer MTT experiment; settings: Mus musculus, concentration 5 ug/ml, 48 h or 72 h, read-out: inhibition ratio L1210
# Description: as §4
# [18] = test system: A375; test: In vitro anticancer MTT experiment; settings: Homo sapiens, A-375, concentration 5 ug/ml, 48 h or 72 h, read-out: inhibition ratio A375
# Description: as §4
# [19] = test system: AS24391; test: In vitro anticancer MTT experiment; settings: concentration 5 ug/ml, 48 h or 72 h, read-out: inhibition ratio AS24391
# Description: as §4
# [20] = test system: FTC 133; test: In vitro anticancer MTT experiment; settings: Homo sapiens, concentration 5 ug/ml, 48 h or 72 h, read-out: inhibition ratio FTC 133
# Description: as §4
# [21] = test system: HTB-95637; test: In vitro anticancer MTT experiment; settings: concentration 5 ug/ml, 48 h or 72 h, read-out: inhibition ratio HTB-95637
# Description: as §4
# [22] = test system: CRL-1435PC-3; test: In vitro anticancer MTT experiment; settings: concentration 5 ug/ml, 48 h or 72 h, read-out: inhibition ratio CRL-1435PC-3
# Description: as §4
# [23] = test system: CRL-2233SNU-398; test: In vitro anticancer MTT experiment; settings: concentration 5 ug/ml, 48 h or 72 h, read-out: inhibition ratio CRL-2233SNU-398
# Description: as §4
# [24] = test system: E. floccosum; test: In vitro antibacterial (antifungal) test, two-fold dilution MIC; settings: Epidermophyton floccosum, RPMI 1640, culture 2-7 days
# Description: as §1, §2, §3
# [25] = test system: HTB-131MDA-MB-453; test: In vitro anticancer MTT experiment; settings: concentration 5 ug/ml, 48 h or 72 h, read-out: inhibition ratio HTB-131MDA-MB-453
# Description: as §4
# [26] = test system: HTB-38HT-29; test: In vitro anticancer MTT experiment; settings: concentration 5 ug/ml, 48 h or 72 h, read-out: inhibition ratio HTB-38HT-29
# Description: as §4
# [27] = test system: HTB-94; test: In vitro anticancer MTT experiment; settings: concentration 5 ug/ml, 48 h or 72 h, read-out: inhibition ratio HTB-94
# Description: as §4
Structure (SMILES),MIC [1],MIC [2],MIC [3],MIC [4],MIC [6],MIC [9],MIC [10],MIC [12],inhibition at 5 µg/mL [13],inhibition at 5 µg/mL [14],inhibition at 5 µg/mL [15],inhibition at 5 µg/mL [16],inhibition at 5 µg/mL [17],inhibition at 5 µg/mL [18],inhibition at 5 µg/mL [19],inhibition at 5 µg/mL [20],inhibition at 5 µg/mL [23],MIC [24],inhibition at 5 µg/mL [26],inhibition at 5 µg/mL [27],also measured
"Cc1ccc2c(c1)C(=O)/C(=C/Cl)CS2 [Compound 5, (Z)-3-(chloromethylene)-6-methylthiochroman-4-one]",0.5 µg/mL,8 µg/mL,2 µg/mL,16 µg/mL,8 µg/mL,8 µg/mL,32 µg/mL,4 µg/mL,62.1%,40.9%,46.8%,58%,87.6%,65.9%,49.8%,60.2%,60.1%,,,,MIC [5]: 4 µg/mL; MIC [7]: 8 µg/mL; MIC [8]: 32 µg/mL; MIC [11]: 8 µg/mL; inhibition at 5 µg/mL [21]: 76.6%; inhibition at 5 µg/mL [22]: 55.6%
"O=C1/C(=C/Cl)SCc2ccc(F)cc21 [Compound 15, (Z)-3-(chloromethylene)-6-fluoroisothiochroman-4-one]",32 µg/mL,16 µg/mL,4 µg/mL,16 µg/mL,16 µg/mL,32 µg/mL,32 µg/mL,4 µg/mL,47.6%,36.8%,55.4%,49.5%,80.9%,60.2%,46.8%,45.9%,45%,8 µg/mL,57%,60.5%,MIC [5]: 32 µg/mL; MIC [7]: 8 µg/mL; MIC [8]: 4 µg/mL; MIC [11]: 8 µg/mL; inhibition at 5 µg/mL [25]: 58%
"Cc1cc2c(cc1F)CS/C(=C\Br)C2=O [Compound 16, (Z)-3-(bromomethylene)-7-fluoro-6-methylisothiochroman-4-one]",4 µg/mL,32 µg/mL,4 µg/mL,32 µg/mL,4 µg/mL,8 µg/mL,16 µg/mL,16 µg/mL,56.7%,57.9%,43.1%,60.4%,85.9%,30.5%,57.8%,46.5%,,16 µg/mL,48%,63.2%,MIC [5]: 32 µg/mL; MIC [7]: 32 µg/mL; MIC [8]: 32 µg/mL; MIC [11]: 16 µg/mL; inhibition at 5 µg/mL [25]: 46.3%; inhibition at 5 µg/mL [21]: 36%; inhibition at 5 µg/mL [22]: 56.9%
"Cc1ccc(S/C=C2/CSc3ccc(F)cc3C2=O)cc1F [Compound 23, (E)-6-fluoro-3-(((3-fluoro-4-methylphenyl)thio)methylene)thiochroman-4-one]",16 µg/mL,,64 µg/mL,16 µg/mL,,64 µg/mL,,,,34.2%,59.5%,39%,37.6%,49.2%,44.5%,42.4%,53.3%,64 µg/mL,56.1%,47.9%,inhibition at 5 µg/mL [25]: 53.5%; inhibition at 5 µg/mL [21]: 50.6%; inhibition at 5 µg/mL [22]: 43.9%
"O=C1/C(=C\Cl)CSc2sccc21 [Compound 24, (E)-5-(chloromethylene)-5,6-dihydro-4H-thieno[2,3-b]thiopyran-4-one]",16 µg/mL,16 µg/mL,16 µg/mL,4 µg/mL,4 µg/mL,32 µg/mL,16 µg/mL,8 µg/mL,33.9%,,47.7%,56.8%,85.4%,32.5%,37%,45.8%,45.6%,16 µg/mL,43.4%,51.3%,MIC [5]: 32 µg/mL; MIC [7]: 16 µg/mL; MIC [8]: 8 µg/mL; MIC [11]: 16 µg/mL; inhibition at 5 µg/mL [25]: 47.6%; inhibition at 5 µg/mL [22]: 39.4%
"Cc1ccc(SC2/C(=C/Cl)CSc3ccc(C)cc32)cc1 (centres unmarked) [Compound 29, (E)-3-(chloromethylene)-6-methyl-4-(p-tolylthio)thiochroman]",,,,16 µg/mL,32 µg/mL,32 µg/mL,64 µg/mL,64 µg/mL,23.3%,17.4%,13.2%,26.5%,33.6%,30.2%,15.2%,32.2%,21.5%,64 µg/mL,19.2%,23.4%,
